Like-named read-outs stand apart in the source and are kept apart here.
Key:
gerbil NK1r [1] = target: T1, gerbil NK1r (Meriones unguiculatus, UniProt Q5DUB1); assay: Inhibition of NK1 receptor activation, intracellular Ca2+ mobilization (FLIPR) in CHO cells; format: cell-based; set-up: Full-length PCR was performed using primers #NK1-16 and #NK1-17; expressed in transfected cells; conditions: pKB ± SD, submaximal (60%) concentration of Substance P
Description: (§1) The activity of a compound to inhibit NK1r activation measured as NK1r-mediated increase in intracellular Ca^2+ was assessed by the following procedure:
(§2) Before the FLIPR assay the cells of each 96-well plate were loaded with the Ca^2+-sensitive dye Fluo-3 (TEFLABS 0116) at 4 μM in a loading media consisting of Nut Mix F12 (HAM) with Glutamax I, 22 mM HEPES, 2.5 mM Probenicid (Sigma P-8761) and 0.04% Pluronic F-127 (Sigma P-2443) and kept in the dark for 1 hour in a 37° C. CO2-incubator. The cells were then washed three times in assay buffer (Hanks balanced salt solution (HBSS) containing 20 mM HEPES, 2.5 mM Probenicid and 0.1% BSA) using a multi-channel pipette leaving them in 150 μl at the end of the last wash. Serial dilutions of a test compound in assay buffer (final DMSO concentration kept below 1%) were automatically pipetted by FLIPR (Fluorometric Imaging Plate Reader) into each test well and the fluorescence intensity was recorded (excitation 488 nm and emission 530 nm) by the FLIPR CCD camera for a 2-min pre-incubation period. 50 μl of the Substance P (NK1 specific), NKA (NK2 specific), or Pro-7-NKB (NK3 specific) agonist solution (final concentration equivalent to an approximate EC60 concentration) was then added by FLIPR into each well already containing 200 μl assay buffer (containing the test compound or vehicle) and the fluorescence was continuously monitored for another 2 min. The response was measured as the peak relative fluorescence after agonist addition and IC50s were calculated from ten-point concentration-response curves for each compound. The IC50s were then converted to pKB values with the following formula: KB=IC50/1+(EC60 conc. of agonist used in assay/EC50 agonist) pKB=−log KB Binding Assay for NK1 Receptors

gerbil NK1r [2] = target: T1, gerbil NK1r
Description: Cells were detached with Accutase® solution, harvested in PBS containing 5% FBS by centrifugation, washed twice in PBS and resuspended to a concentration of 1×10^8 cells/ml in Tris-HCl 50 mM, KCl 300 mM, EDTA-N2 10 mM pH 7.4 (4° C.). Cell suspensions were homogenized with a UltraTurrax 30 s 12.000 rpm. The homogenates were centrifuged at 38,000×g (4° C.) and the pellet resuspended in Tris-HCl 50 mM pH 7.4. The homogenization was repeated once and the homogenates were incubated on ice for 45 min. The homogenates were again centrifuged as described above and resuspended in Tris-HCl 50 mM pH 7.4. This centrifugation step was repeated 3 times in total. After the last centrifugation step the pellet was resuspended in Tris-HCl 50 mM and homogenized with Dual Potter, 10 strokes to a homogenous solution, and aliquots were removed for protein determination. Membranes were aliquoted and frozen at −80° C. until use.
The radioligand binding assay was performed at room temperature in 96-well microtiter plates (No-binding Surface Plates, Corning 3600) with a final assay volume of 200 μl/well in incubation buffer (50 mM Tris buffer (pH 7.4 RT) containing 0.1% BSA, 40 mg/L Bacitracin, complete EDTA-free protease inhibitor cocktail tablets 20 pills/L (Roche) and 3 mM MnCl2).
Competition binding curves were done by adding increasing amounts of the test compound. […]
(§3) The membranes were then collected by rapid filtration on Filtermat B(Wallac), presoaked in 0.1% BSA and 0.3% Polyethyleneimine (Sigma P-3143), using a Micro 96 Harvester (Skatron Instruments, Norway). […] Meltilex scintillator sheets were melted on to filters using a Microsealer (Wallac, Finland) and the filters were counted in a β-Liquid Scintillation Counter (1450 Microbeta, Wallac, Finland).
(§4) The Ki value for the unlabeled ligand was calculated using the Cheng-Prusoff equation (Biochem. Pharmacol. 22:3099-3108, 1973), where L is the concentration of the radioactive ligand used and Kd is the affinity of the radioactive ligand for the receptor, determined by saturation binding. […]

rat NK1r = target: T2, rat NK1r (Rattus norvegicus, UniProt P14600); assay: Inhibition of NK1 receptor activation, intracellular Ca2+ mobilization (FLIPR) in CHO cells; format: cell-based; conditions: pKB ± SD, submaximal (60%) concentration of Substance P
T2 construct: expressed in transfected cells
T2 sequence (P14600 whole entry): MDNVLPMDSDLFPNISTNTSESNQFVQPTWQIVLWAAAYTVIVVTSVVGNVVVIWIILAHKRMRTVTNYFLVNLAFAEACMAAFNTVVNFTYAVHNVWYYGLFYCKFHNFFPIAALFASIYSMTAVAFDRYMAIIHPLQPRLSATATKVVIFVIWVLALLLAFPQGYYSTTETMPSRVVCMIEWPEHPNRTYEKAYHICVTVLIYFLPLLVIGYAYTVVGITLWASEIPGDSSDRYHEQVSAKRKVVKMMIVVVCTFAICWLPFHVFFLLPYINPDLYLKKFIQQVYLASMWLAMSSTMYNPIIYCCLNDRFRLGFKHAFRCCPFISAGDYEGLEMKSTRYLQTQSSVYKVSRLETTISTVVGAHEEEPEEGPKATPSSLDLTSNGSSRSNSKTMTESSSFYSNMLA
Description: as §1, §2

gerbil NK1r [3] = target: T1, gerbil NK1r; assay: Gerbil foot tap (GFT, NK1r-specific test model); format: in vivo, Mongolian gerbil; set-up: tissue Charles River, Germany (animals); host or cells: living Mongolian gerbil, central nervous system (in vivo); conditions: from brain homogenate concentration of antagonist at 50% inhibition, used in the Cheng-Prusoff equation
Text: Male Mongolian gerbils (60-80 g) were purchased from Charles River, Germany. On arrival, they were housed in groups of ten, with food and water ad libitum in temperature- and humidity-controlled holding rooms. The animals were allowed at least 7 days to acclimatize to the housing conditions before experiments. Each animal was used only once and killed immediately after the experiment by heart punctuation or a lethal overdose of pentobarbital sodium.
Gerbils were anaesthetized with isoflurane. Potential CNS-permeable NK1 receptor antagonists were administered intraperitoneally, intravenously or subcutaneously.
The gerbils were lightly anaesthetized using isoflurane and a small incision was made in the skin over bregma. 10 pmol of ASMSP, a selective NK1receptor agonist, was administered icv in a volume of 5 μl using a Hamilton syringe with a needle 4 mm long. The wound was clamped shut and the animal was placed in a small plastic cage and allowed to wake up. The cage was placed on a piece of plastic tubing filled with water and connected to a computer via a pressure transducer. The number of hind feet taps was recorded.

human NK1r [4] = target: T3, human NK1r (Homo sapiens, UniProt P25103)
T3 sequence (P25103 whole entry): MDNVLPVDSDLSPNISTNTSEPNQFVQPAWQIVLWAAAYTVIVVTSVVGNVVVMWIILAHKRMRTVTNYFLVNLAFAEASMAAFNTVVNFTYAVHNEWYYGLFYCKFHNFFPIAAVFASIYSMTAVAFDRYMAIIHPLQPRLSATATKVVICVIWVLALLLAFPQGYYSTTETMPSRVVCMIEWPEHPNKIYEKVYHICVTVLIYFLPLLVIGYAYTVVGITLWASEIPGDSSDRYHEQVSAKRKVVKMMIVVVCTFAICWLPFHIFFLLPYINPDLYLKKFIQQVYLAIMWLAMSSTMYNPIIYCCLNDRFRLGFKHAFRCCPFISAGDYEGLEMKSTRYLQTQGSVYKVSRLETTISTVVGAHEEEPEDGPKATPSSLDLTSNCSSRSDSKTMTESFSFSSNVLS
Description: Cells were detached with Accutase® solution, harvested in PBS containing 5% FBS by centrifugation, washed twice in PBS and resuspended to a concentration of 1×10^8 cells/ml in Tris-HCl 50 mM, KCl 300 mM, EDTA-N2 10 mM pH 7.4 (4° C.). Cell suspensions were homogenized with a UltraTurrax 30 s 12.000 rpm. The homogenates were centrifuged at 38,000×g (4° C.) and the pellet resuspended in Tris-HCl 50 mM pH 7.4. The homogenization was repeated once and the homogenates were incubated on ice for 45 min. The homogenates were again centrifuged as described above and resuspended in Tris-HCl 50 mM pH 7.4. This centrifugation step was repeated 3 times in total. […]
as §3, §4

human NK1r [5] = target: T3, human NK1r; assay: Inhibition of NK1 receptor activation, intracellular Ca2+ mobilization (FLIPR) in CHO cells; format: cell-based; set-up: expressed in transfected cells; conditions: pKB ± SD, submaximal (60%) concentration of Substance P
Description: as §1
CO2-incubator. The cells were then washed three times in assay buffer (Hanks balanced salt solution (HBSS) containing 20 mM HEPES, 2.5 mM Probenicid and 0.1% BSA) using a multi-channel pipette leaving them in 150 μl at the end of the last wash. […] 50 μl of the Substance P (NK1 specific), NKA (NK2 specific), or Pro-7-NKB (NK3 specific) agonist solution (final concentration equivalent to an approximate EC60 concentration) was then added by FLIPR into each well already containing 200 μl assay buffer (containing the test compound or vehicle) and the fluorescence was continuously monitored for another 2 min. The response was measured as the peak relative fluorescence after agonist addition and IC50s were calculated from ten-point concentration-response curves for each compound. The IC50s were then converted to pKB values with the following formula: KB=IC50/1+(EC60 conc. of agonist used in assay/EC50 agonist) pKB=−log KB Binding Assay for NK1 Receptors

T1 sequence (Q5DUB1 whole entry): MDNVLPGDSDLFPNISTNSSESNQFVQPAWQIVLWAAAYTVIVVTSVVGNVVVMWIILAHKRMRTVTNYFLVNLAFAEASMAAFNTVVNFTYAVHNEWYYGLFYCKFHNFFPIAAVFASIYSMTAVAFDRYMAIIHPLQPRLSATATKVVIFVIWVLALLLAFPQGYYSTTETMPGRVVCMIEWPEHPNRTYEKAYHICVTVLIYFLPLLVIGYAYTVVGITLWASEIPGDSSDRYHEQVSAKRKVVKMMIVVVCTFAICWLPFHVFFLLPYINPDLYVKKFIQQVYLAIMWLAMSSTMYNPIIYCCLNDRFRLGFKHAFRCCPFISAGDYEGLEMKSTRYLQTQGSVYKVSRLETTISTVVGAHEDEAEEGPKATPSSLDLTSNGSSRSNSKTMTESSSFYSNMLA

gerbil NK1r pKB (gerbil NK1r [1]) | Ki (human NK1r [4]) [nM] | human NK1r pKB (human NK1r [5]) | Ki (gerbil NK1r [2]; read-out: Gerbil NK1 Ki, competition binding, CHO cell membranes) [nM] | rat NK1r pKB (rat NK1r) | SMILES | Kb (gerbil NK1r [1]) [nM] | Ki (gerbil NK1r [2]) [nM] | Kb (rat NK1r) [nM] | gerbil NK1r pKBapp. (in vivo GFT apparent pKB) (gerbil NK1r [3])
– | – | – | – | – | COc1ccccc1CN[C@H]1CCCN[C@H]1c1ccccc1 [CP 99994] | 1.15 | 0.81 | 1230 | 8.1
– | – | – | – | – | C[C@@H](O[C@H]1OCCN(Cc2n[nH]c(=O)[nH]2)[C@H]1c1ccc(F)cc1)c1cc(C(F)(F)F)cc(C(F)(F)F)c1 [MK 869, aprepitant] | 1.55 | 0.16 | 55 | 8.9
9.00 ± 0.25 | 0.31 | 8.53 ± 0.41 | 0.38 | <6 | CN(C[C@@H](CCN1CCC(c2ccccc2[S@+](C)[O-])CC1)c1ccc(Cl)c(Cl)c1)C(=O)c1cc(C#N)cc2ccccc12 [ZD 6021] | – | – | – | 8.5
